Experimental data as given in ChEMBL document CHEMBL1201862, “PubChem BioAssay data set” (2004).
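Five compound concentrations were applied to cells in 96-well plates for 48 hours; endpoints were derived by simple linear interpolation of the resulting dose-response curve. The concentration for 50% growth inhibition is given as GI50.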 Activity calls are given as the source filed them. No stated cut-off is given here; in the data, active = GI50 up to about 1.1 µM and inactive = higher.

Tests used:
Experiment in all cases: growth of human tumour cells (NCI), 48 h
[1] = system: M14
[2] = system: ACHN
[3] = system: MDA-MB-435
[4] = system: SK-OV-3
[5] = system: RXF 393
[6] = system: HL-60
[7] = system: DU-145
[8] = system: MCF7
[9] = system: SNB-19
[10] = system: OVCAR-8
[11] = system: HT-29
[12] = system: T47D
[13] = system: A498
[14] = system: SK-MEL-28
[15] = system: NCI-H522
[16] = system: TK-10
[17] = system: SK-MEL-2
[18] = system: SF-539
[19] = system: U-251

SMILES	GI50 [1]	GI50 [2]	GI50 [3]	GI50 [4]	GI50 [5]	GI50 [6]	GI50 [7]	GI50 [8]	GI50 [9]	GI50 [10]	GI50 [11]	GI50 [12]	GI50 [13]	GI50 [14]	GI50 [15]	GI50 [16]	GI50 [17]	GI50 [18]	GI50 [19]
Cc1cnoc1NS(=O)(=O)c1ccc(Nc2nnc(/C=C/c3c(O)ccc4ccccc34)c(=O)n2N)cc1	25.9 µM (inactive)	22.2 µM (inactive)	26.7 µM (inactive)	56.1 µM (inactive)	24 µM (inactive)	0.74 µM (active)	43.8 µM (inactive)	18.2 µM (inactive)	65.2 µM (inactive)	16.4 µM (inactive)	58.6 µM (inactive)	20.1 µM (inactive)	–	–	–	–	–	–	–
CCCn1c(SC)nc(COC(=O)NC)c1COC(=O)NC	> 100 µM (inactive)	> 100 µM (inactive)	> 100 µM (inactive)	> 100 µM (inactive)	–	> 100 µM (inactive)	> 100 µM (inactive)	> 100 µM (inactive)	> 100 µM (inactive)	> 100 µM (inactive)	> 100 µM (inactive)	> 100 µM (inactive)	64 µM (inactive)	> 100 µM (inactive)	> 100 µM (inactive)	> 100 µM (inactive)	> 100 µM (inactive)	> 100 µM (inactive)	–
Cc1ccc(S(=O)(=O)OC2CCN(C)CC2)cc1	> 100 µM (inactive)	32.6 µM (inactive)	> 100 µM (inactive)	> 100 µM (inactive)	> 100 µM (inactive)	18 µM (inactive)	> 100 µM (inactive)	47.9 µM (inactive)	> 100 µM (inactive)	> 100 µM (inactive)	> 100 µM (inactive)	23.1 µM (inactive)	–	> 100 µM (inactive)	19 µM (inactive)	> 100 µM (inactive)	> 100 µM (inactive)	88.7 µM (inactive)	> 100 µM (inactive)
O=[N+]([O-])/C(C(Cl)=C(Cl)Cl)=C1\NCCS1	46.9 µM (inactive)	61 µM (inactive)	35.8 µM (inactive)	> 100 µM (inactive)	27.9 µM (inactive)	16.9 µM (inactive)	> 100 µM (inactive)	36 µM (inactive)	> 100 µM (inactive)	47.2 µM (inactive)	47.8 µM (inactive)	–	26.1 µM (inactive)	48.2 µM (inactive)	–	> 100 µM (inactive)	–	42.5 µM (inactive)	45.8 µM (inactive)
Cc1cccc(/C=N/NC(=S)NCc2ccccn2)n1	18.6 µM (inactive)	10.4 µM (inactive)	36.9 µM (inactive)	28.3 µM (inactive)	–	23.4 µM (inactive)	15.1 µM (inactive)	31.8 µM (inactive)	47.5 µM (inactive)	32.1 µM (inactive)	27.7 µM (inactive)	31 µM (inactive)	49.2 µM (inactive)	45.8 µM (inactive)	34.3 µM (inactive)	99.3 µM (inactive)	> 100 µM (inactive)	23.4 µM (inactive)	20.7 µM (inactive)
O=c1[nH]c(-n2[nH]c3c(c2=O)CCCC3)nc(O)c1-c1ccccc1	> 100 µM (inactive)	> 100 µM (inactive)	> 100 µM (inactive)	> 100 µM (inactive)	> 100 µM (inactive)	> 100 µM (inactive)	> 100 µM (inactive)	–	> 100 µM (inactive)	> 100 µM (inactive)	> 100 µM (inactive)	> 100 µM (inactive)	> 100 µM (inactive)	> 100 µM (inactive)	> 100 µM (inactive)	> 100 µM (inactive)	> 100 µM (inactive)	–	> 100 µM (inactive)
COC(=O)NC1(NC(=O)OC)NC(=O)c2cc(OC)c(OC)cc2N1	20.8 µM (inactive)	64 µM (inactive)	2.97 µM (inactive)	–	–	–	48.6 µM (inactive)	16.1 µM (inactive)	55.5 µM (inactive)	65.6 µM (inactive)	–	39.4 µM (inactive)	–	29.3 µM (inactive)	2.54 µM (inactive)	> 100 µM (inactive)	19 µM (inactive)	25.6 µM (inactive)	–
C1COCCN1.CN(C)c1ccc(-c2c(C#N)c(N)nc(S)c2C#N)cc1	34 µM (inactive)	> 100 µM (inactive)	83.4 µM (inactive)	> 100 µM (inactive)	23.5 µM (inactive)	> 100 µM (inactive)	> 100 µM (inactive)	53.1 µM (inactive)	39.9 µM (inactive)	> 100 µM (inactive)	> 100 µM (inactive)	–	24.9 µM (inactive)	82.6 µM (inactive)	29 µM (inactive)	> 100 µM (inactive)	34.4 µM (inactive)	> 100 µM (inactive)	> 100 µM (inactive)
Cc1ccc(N/C(=C(/C(Cl)=C(Cl)Cl)[N+](=O)[O-])n2nnc3ccccc32)cc1	16.6 µM (inactive)	21.4 µM (inactive)	20.1 µM (inactive)	17.1 µM (inactive)	–	–	–	29.1 µM (inactive)	18.3 µM (inactive)	18.8 µM (inactive)	22 µM (inactive)	22.5 µM (inactive)	–	17.5 µM (inactive)	–	–	17.7 µM (inactive)	15.2 µM (inactive)	–
CCCc1c2c3ccccc3nc-2nc2ccccn12	26.7 µM (inactive)	46.7 µM (inactive)	94.4 µM (inactive)	> 100 µM (inactive)	–	35.6 µM (inactive)	> 100 µM (inactive)	–	> 100 µM (inactive)	71.8 µM (inactive)	43.6 µM (inactive)	> 100 µM (inactive)	> 100 µM (inactive)	> 100 µM (inactive)	> 100 µM (inactive)	52.7 µM (inactive)	> 100 µM (inactive)	> 100 µM (inactive)	63.7 µM (inactive)
CO[C@H](C)[C@](O)(C(=O)OCC1=CCN2CC[C@@H](O)[C@H]12)C(C)C	> 100 µM (inactive)	73.3 µM (inactive)	> 100 µM (inactive)	> 100 µM (inactive)	–	> 10 µM (inactive)	> 100 µM (inactive)	> 100 µM (inactive)	> 100 µM (inactive)	> 100 µM (inactive)	> 100 µM (inactive)	> 100 µM (inactive)	> 100 µM (inactive)	> 100 µM (inactive)	> 100 µM (inactive)	> 100 µM (inactive)	> 100 µM (inactive)	> 100 µM (inactive)	> 100 µM (inactive)
[O-][N+]1=C2CCC/C(=N/O)C2(O)C2CCCCC21N1CCOCC1 (configuration not stated)	> 100 µM (inactive)	> 100 µM (inactive)	> 100 µM (inactive)	> 100 µM (inactive)	8.02 µM (inactive)	–	–	> 100 µM (inactive)	> 100 µM (inactive)	> 100 µM (inactive)	> 100 µM (inactive)	> 100 µM (inactive)	–	> 100 µM (inactive)	> 100 µM (inactive)	> 100 µM (inactive)	> 100 µM (inactive)	> 100 µM (inactive)	> 100 µM (inactive)
CCOC(=O)/C(C#N)=C/c1coc2cc(C)cc(C)c2c1=O	> 100 µM (inactive)	> 100 µM (inactive)	> 100 µM (inactive)	> 100 µM (inactive)	> 100 µM (inactive)	> 100 µM (inactive)	> 100 µM (inactive)	–	> 100 µM (inactive)	> 100 µM (inactive)	> 100 µM (inactive)	> 100 µM (inactive)	> 100 µM (inactive)	> 100 µM (inactive)	> 100 µM (inactive)	> 100 µM (inactive)	–	> 100 µM (inactive)	> 100 µM (inactive)
O=C(c1c(Cl)cc(Cl)cc1Cl)N(Cc1cccnc1)C(=S)N(Cc1cccnc1)C(=O)c1c(Cl)cc(Cl)cc1Cl	4.82 µM (inactive)	19.1 µM (inactive)	8.67 µM (inactive)	22.2 µM (inactive)	–	7.23 µM (inactive)	4.62 µM (inactive)	4.52 µM (inactive)	20.2 µM (inactive)	4.04 µM (inactive)	2.97 µM (inactive)	14.4 µM (inactive)	23.8 µM (inactive)	11 µM (inactive)	6.89 µM (inactive)	3.93 µM (inactive)	12.5 µM (inactive)	11 µM (inactive)	9.02 µM (inactive)
O=c1oc2ccccc2n1CCCn1c(=O)oc2ccccc21	> 100 µM (inactive)	92.5 µM (inactive)	> 100 µM (inactive)	> 100 µM (inactive)	82.8 µM (inactive)	> 100 µM (inactive)	> 100 µM (inactive)	> 100 µM (inactive)	> 100 µM (inactive)	> 100 µM (inactive)	> 100 µM (inactive)	–	> 100 µM (inactive)	> 100 µM (inactive)	–	> 100 µM (inactive)	> 100 µM (inactive)	> 100 µM (inactive)	47.9 µM (inactive)
O=C(O)/C=C/c1ccc2c(c1)CC1(Cc3ccccc3C1)C2	48.1 µM (inactive)	41.6 µM (inactive)	80.5 µM (inactive)	> 100 µM (inactive)	94 µM (inactive)	37.5 µM (inactive)	–	43.6 µM (inactive)	–	66.1 µM (inactive)	39.8 µM (inactive)	> 100 µM (inactive)	75.3 µM (inactive)	–	54.5 µM (inactive)	> 100 µM (inactive)	39.3 µM (inactive)	96.4 µM (inactive)	49.5 µM (inactive)
Cc1cc(C)nc(NS(=O)(=O)c2ccc(Nc3c4ccccc4nc4c(C(=O)NNCCO)cccc34)cc2)n1	> 100 µM (inactive)	> 100 µM (inactive)	79.3 µM (inactive)	> 100 µM (inactive)	–	42 µM (inactive)	> 100 µM (inactive)	89.1 µM (inactive)	> 100 µM (inactive)	> 100 µM (inactive)	> 100 µM (inactive)	5.06 µM (inactive)	> 100 µM (inactive)	> 100 µM (inactive)	39.5 µM (inactive)	> 100 µM (inactive)	58.6 µM (inactive)	–	> 100 µM (inactive)
